Experimental data taken from patent US9296725B2, “Heterocyclyl pyrimidine analogues as TYK2 inhibitors” (Cellzome Limited, priority 2012, dated 2016).
Read-outs that look alike come from different tables or passages of the source.

Tests used:
[1] = molecular target: T1, JAK2 (Homo sapiens, UniProt O60674); assay: Kinobeads assay, JAK2 (competition binding in mixed Molt4/Ramos cell lysate, dot blot detection); settings: read-out: JAK2 Band (Kinobeads assay potency, IC50)
T1 construct: endogenous in cells; host or cells: Molt4 (ATCC CRL-1582) and Ramos (ATCC CRL-1596), mixed lysate 1:2
Experimental: (§1) The compounds of the present invention as described in the previous examples were tested in a Kinobeads™ assay as described for ZAP-70 (WO-A 2007/137867). Briefly, test compounds (at various concentrations) and the affinity matrix with the immobilized aminopyrido-pyrimidine ligand 24 were added to cell lysate aliquots and allowed to bind to the proteins in 10 the lysate sample. After the incubation time the beads with captured proteins were separated from the lysate. Bound proteins were then eluted and the presence of TYK2 and JAK2 was detected and quantified using specific antibodies in a dot blot procedure and the Odyssey infrared detection system. Dose response curves for individual kinases were generated and IC50 values calculated. Kinobeads™ assays have been previously described (WO-A 2007/137867; WO-A 2006/134056).
(§2) The affinity matrix was washed two times with 15 mL of 1×DP buffer containing 0.2% NP40 (IGEPAL® CA-630, Sigma, #13021) and then resuspended in 1×DP buffer containing 0.2% NP40 (3% beads slurry). 5×DP buffer: 250 mM Tris-HCl pH 7.4, 25% Glycerol, 7.5 mM MgCl2, 750 mM NaCl, 5 mM Na3VO4; filter the 5×DP buffer through a 0.22 μm filter and store in aliquots at −80° C. The 5×DP buffer is diluted with H2O to 1×DP buffer containing 1 mM DTT and 25 mM NaF.
(§3) Stock solutions of test compounds were prepared in DMSO. In a 96 well plate 30 μL solution of diluted test compounds at 5 mM in DMSO were prepared. Starting with this solution a 1:3 dilution series (9 steps) was prepared. For control experiments (no test compound) a buffer containing 2% DMSO was used.
(§4) Molt4 cells (ATCC catalogue number CRL-1582) and Ramos cells (ATCC catalogue number CRL-1596) were grown in 1 L Spinner flasks (Integra Biosciences, #182101) in suspension in RPMI 1640 medium (Invitrogen, #21875-034) supplemented with 10% Fetal Bovine Serum (Invitrogen) at a density between 0.15×10^6 and 1.2×10^6 cells/mL. Cells were harvested by centrifugation, washed once with 1×PBS buffer (Invitrogen, #14190-094) and cell pellets were frozen in liquid nitrogen and subsequently stored at −80° C. Cells were homogenized in a Potter S homogenizer in lysis buffer: 50 mM Tris-HCl, 0.8% NP40, 5% glycerol, 150 mM NaCl, 1.5 mM MgCl2, 25 mM NaF, 1 mM sodium vanadate, 1 mM DTT, pH 7.5. One complete EDTA-free tablet (protease inhibitor cocktail, Roche Diagnostics, 1873580) per 25 mL buffer was added. The material was dounced 10 times using a mechanized POTTER S, transferred to 50 mL falcon tubes, incubated for 30 minutes on ice and spun down for 10 minutes at 20,000 g at 4° C. (10,000 rpm in Sorvall SLA600, precooled). The supernatant was transferred to an ultracentrifuge (UZ)-polycarbonate tube (Beckmann, 355654) and spun for 1 hour at 100.000 g at 4° C. (33.500 rpm in Ti50.2, precooled). The supernatant was transferred again to a fresh 50 mL falcon tube, the protein concentration was determined by a Bradford assay (BioRad) and samples containing 50 mg of protein per aliquot were prepared. The samples were immediately used for experiments or frozen in liquid nitrogen and stored frozen at −80° C.
(§5) Cell lysate (approximately 50 mg protein per plate) was thawed in a water bath at room temperature and then stored on ice. To the thawed cell lysate 1×DP 0.8% NP40 buffer containing protease inhibitors (1 tablet for 25 mL buffer; EDTA-free protease inhibitor cocktail; Roche Diagnostics 1873580) was added in order to reach a final protein concentration of 10 mg/mL total protein. The diluted cell lysate was stored on ice. Mixed Molt4/Ramos lysate was prepared by combining one volume of Molt4 lysate and two volumes of Ramos lysate (ratio 1:2).
(§6) To a 96 well filter plate (Multiscreen HTS, BV Filter Plates, Millipore #MSBVN1250) were added per well: 100 μL affinity matrix (3% beads slurry), 3 μL of compound solution, and 50 μL of diluted lysate. Plates were sealed and incubated for 3 hours in a cold room on a plate shaker (Heidolph tiramax 1000) at 750 rpm. […]

[2] = molecular target: T2, TYK2 (Homo sapiens, UniProt P29597); assay: Kinobeads assay, TYK2 (competition binding in mixed Molt4/Ramos cell lysate, dot blot detection)
T2 construct: endogenous in cells; host or cells: Molt4 (ATCC CRL-1582) and Ramos (ATCC CRL-1596), mixed lysate 1:2
Experimental: as §1, §2, §3, §4, §5, §6

[3] = Kinobeads assay, Molt4/Ramos lysate, read-out: TYK2 Band (Kinobeads assay potency, IC50)

T1 sequence (O60674 whole entry): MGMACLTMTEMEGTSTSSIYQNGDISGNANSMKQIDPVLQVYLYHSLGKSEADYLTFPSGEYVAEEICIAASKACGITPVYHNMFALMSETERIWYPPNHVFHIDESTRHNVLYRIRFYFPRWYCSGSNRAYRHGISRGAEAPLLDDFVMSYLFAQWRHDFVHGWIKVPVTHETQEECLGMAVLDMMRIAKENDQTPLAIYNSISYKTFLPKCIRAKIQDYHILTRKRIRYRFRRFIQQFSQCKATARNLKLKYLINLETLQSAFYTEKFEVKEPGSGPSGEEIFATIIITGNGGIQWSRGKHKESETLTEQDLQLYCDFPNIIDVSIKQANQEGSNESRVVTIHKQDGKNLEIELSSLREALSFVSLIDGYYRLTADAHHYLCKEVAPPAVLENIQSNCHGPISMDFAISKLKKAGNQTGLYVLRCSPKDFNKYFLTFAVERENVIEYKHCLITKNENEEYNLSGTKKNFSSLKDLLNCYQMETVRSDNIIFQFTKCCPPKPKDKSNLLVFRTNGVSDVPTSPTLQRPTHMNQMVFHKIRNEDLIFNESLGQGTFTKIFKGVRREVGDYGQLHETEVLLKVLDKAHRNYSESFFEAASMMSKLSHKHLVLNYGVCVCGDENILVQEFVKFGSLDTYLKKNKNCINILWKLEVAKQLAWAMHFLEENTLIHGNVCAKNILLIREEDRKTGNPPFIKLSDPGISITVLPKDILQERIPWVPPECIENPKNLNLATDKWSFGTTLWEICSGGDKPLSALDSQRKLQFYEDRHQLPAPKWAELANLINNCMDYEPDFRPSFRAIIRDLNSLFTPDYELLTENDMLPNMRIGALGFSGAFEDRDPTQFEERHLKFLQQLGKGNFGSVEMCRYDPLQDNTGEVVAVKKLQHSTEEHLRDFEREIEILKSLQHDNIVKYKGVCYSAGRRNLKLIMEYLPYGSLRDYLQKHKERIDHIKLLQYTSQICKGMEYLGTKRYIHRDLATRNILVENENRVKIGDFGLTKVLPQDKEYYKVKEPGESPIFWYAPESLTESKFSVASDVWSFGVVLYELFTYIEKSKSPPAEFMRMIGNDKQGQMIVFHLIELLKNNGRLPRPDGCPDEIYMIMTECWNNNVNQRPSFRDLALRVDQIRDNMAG
T2 sequence (P29597 whole entry): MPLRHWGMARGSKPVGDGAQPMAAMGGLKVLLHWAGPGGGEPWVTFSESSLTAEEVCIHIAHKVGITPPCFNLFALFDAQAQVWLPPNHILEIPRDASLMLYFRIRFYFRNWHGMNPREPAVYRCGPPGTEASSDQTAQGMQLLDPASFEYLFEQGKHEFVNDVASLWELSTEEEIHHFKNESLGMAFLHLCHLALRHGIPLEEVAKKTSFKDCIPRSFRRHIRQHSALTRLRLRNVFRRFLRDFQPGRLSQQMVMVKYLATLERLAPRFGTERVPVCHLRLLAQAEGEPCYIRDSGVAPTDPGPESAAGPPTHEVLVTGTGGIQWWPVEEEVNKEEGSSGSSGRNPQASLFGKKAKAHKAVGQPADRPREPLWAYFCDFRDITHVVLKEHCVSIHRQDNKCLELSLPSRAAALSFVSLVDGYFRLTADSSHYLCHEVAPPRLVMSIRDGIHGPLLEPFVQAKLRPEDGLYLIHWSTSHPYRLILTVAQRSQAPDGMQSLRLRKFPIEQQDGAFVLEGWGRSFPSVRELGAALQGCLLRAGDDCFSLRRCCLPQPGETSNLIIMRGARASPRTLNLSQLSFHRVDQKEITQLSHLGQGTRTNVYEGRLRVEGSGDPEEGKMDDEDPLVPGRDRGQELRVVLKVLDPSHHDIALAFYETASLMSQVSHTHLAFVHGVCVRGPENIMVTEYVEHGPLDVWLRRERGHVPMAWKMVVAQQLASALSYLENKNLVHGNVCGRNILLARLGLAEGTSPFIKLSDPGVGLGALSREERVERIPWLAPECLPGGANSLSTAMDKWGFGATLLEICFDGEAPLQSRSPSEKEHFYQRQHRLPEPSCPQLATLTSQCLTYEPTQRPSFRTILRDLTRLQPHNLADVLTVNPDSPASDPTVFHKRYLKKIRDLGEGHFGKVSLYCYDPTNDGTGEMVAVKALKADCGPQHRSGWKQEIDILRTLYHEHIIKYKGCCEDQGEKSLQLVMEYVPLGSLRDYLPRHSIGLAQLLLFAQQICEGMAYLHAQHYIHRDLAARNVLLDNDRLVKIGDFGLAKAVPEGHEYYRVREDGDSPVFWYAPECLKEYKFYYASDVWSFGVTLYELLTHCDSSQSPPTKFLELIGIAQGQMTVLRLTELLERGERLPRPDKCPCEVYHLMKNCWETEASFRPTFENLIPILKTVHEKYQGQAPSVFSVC

Compound	IC50 [1]	IC50 [2, 3]	IC50 ([2]; read-out: TYK2 IC50)
CC(C)NC(=O)Cn1cc(Nc2nccc(NCc3c(Cl)ccc(Cl)c3F)n2)cn1 [Example I-78]	100 to 1000 nM	≤ 10 nM	
CS(=O)(=O)Cc1cccc(CNc2nc(Nc3cnn(CC(N)=O)c3)ncc2Cl)c1 [Example I-443]	1000 to 10000 nM	100 to 1000 nM	
CN(C)C(=O)Cn1cc(Nc2ncc(Cl)c(NCc3c(F)ccc(F)c3F)n2)cn1 [Example I-360]	100 to 1000 nM	≤ 10 nM	
Cn1cc(Nc2ncc(Cl)c(NCc3cc(F)cc(C(F)(F)F)c3)n2)cn1 [Example I-166]	1000 to 10000 nM	100 to 1000 nM	
COc1c(F)cc(F)cc1CNc1nc(Nc2cnn(CC(=O)NC3CC3)c2)ncc1C [Example I-345]	100 to 1000 nM	10 to 100 nM	
O=C(Cn1cc(Nc2ncc(Cl)c(NCc3cccnc3)n2)cn1)N1CCOCC1 [Example I-337]	1000 to 10000 nM	100 to 1000 nM	
CN(C)C(=O)Cn1cc(Nc2ncc(Cl)c(NCc3cccc(CNS(C)(=O)=O)c3)n2)cn1 [Example I-416]	100 to 1000 nM	100 to 1000 nM	
Cn1cc(Nc2ncc(F)c(NCc3c(F)cc(F)cc3F)n2)cn1 [Example I-374]	1000 to 10000 nM	10 to 100 nM	
Cc1cnc(Nc2cnn(CC(F)F)c2)nc1NCc1c(F)ccc(F)c1F [Example I-87]	100 to 1000 nM	10 to 100 nM	
O=C(Cn1cc(Nc2nccc(NCc3c(F)cc(F)cc3F)n2)cn1)N[C@@H]1CCOC1 [Example I-137]	1000 to 10000 nM	10 to 100 nM	
CC(C)NC(=O)Cn1cc(Nc2nccc(NCc3c(F)cccc3F)n2)cn1 [Example I-62]	> 10000 nM	10 to 100 nM	< 100 nM
C[C@@H](CO)NC(=O)Cn1cc(Nc2nccc(NCc3c(F)cc(F)cc3F)n2)cn1 [Example I-75]	> 10000 nM	≤ 10 nM	
OCCn1cc(Nc2ncc(F)c(NCc3c(F)ccc(F)c3F)n2)cn1 [Example I-202]	100 to 1000 nM	≤ 10 nM	
Cn1cc(Nc2ncc(Cl)c(NCc3c(F)ccc(F)c3F)n2)cn1 [Example I-340]	100 to 1000 nM	10 to 100 nM	
O=C(Cn1cc(Nc2ncc(Cl)c(NCc3c(F)cccc3F)n2)cn1)N1CCOCC1 [Example I-161]	100 to 1000 nM	≤ 10 nM	
NS(=O)(=O)c1ccc(CNc2nc(Nc3cnn(CC(=O)N4CCOCC4)c3)ncc2F)cc1 [Example I-11]	> 10000 nM	10 to 100 nM	
CNC(=O)Cn1cc(Nc2ncc(Cl)c(NCc3cc(C(F)(F)F)ccc3Cl)n2)cn1 [Example I-280]	100 to 1000 nM	10 to 100 nM	
CNC(=O)Cn1cc(Nc2ncc(Cl)c(NCc3cccc(F)c3F)n2)cn1 [Example I-208]	100 to 1000 nM	100 to 1000 nM	
Cn1cc(Nc2ncc(F)c(NCc3c(Cl)ccc(Cl)c3F)n2)cn1 [Example I-457]	100 to 1000 nM	10 to 100 nM	
[2H]C([2H])(O)C([2H])([2H])n1cc(Nc2ncc(Cl)c(NCc3cccc(OC)c3)n2)cn1 [Example I-235]	1000 to 10000 nM	100 to 1000 nM	
NS(=O)(=O)c1ccc(F)c(CNc2nc(Nc3cnn(CCO)c3)ncc2Cl)c1 [Example I-226]	1000 to 10000 nM	10 to 100 nM	
OCCn1cc(Nc2ncc(Cl)c(NCc3ccccc3C(F)(F)F)n2)cn1 [Example I-191]	1000 to 10000 nM	100 to 1000 nM	
Cn1cc(Nc2ncc(Cl)c(NCc3cncc(F)c3)n2)cn1 [Example I-258]	100 to 1000 nM	100 to 1000 nM	
COc1ccc(S(C)(=O)=O)cc1CNc1nc(Nc2cnn(CC(F)F)c2)ncc1F [Example I-480]	1000 to 10000 nM	100 to 1000 nM	
